The experiment has as its target MAPK14 (UniProt Q16539). Kind of experiment: Enzyme Assay.

In general, IC50 refers to the concentration needed to halve the response being measured. The low end stands for greater potency in that assay, the high end for weaker potency in that assay.

Sequence of MAPK14 (Q16539 whole entry, looked up): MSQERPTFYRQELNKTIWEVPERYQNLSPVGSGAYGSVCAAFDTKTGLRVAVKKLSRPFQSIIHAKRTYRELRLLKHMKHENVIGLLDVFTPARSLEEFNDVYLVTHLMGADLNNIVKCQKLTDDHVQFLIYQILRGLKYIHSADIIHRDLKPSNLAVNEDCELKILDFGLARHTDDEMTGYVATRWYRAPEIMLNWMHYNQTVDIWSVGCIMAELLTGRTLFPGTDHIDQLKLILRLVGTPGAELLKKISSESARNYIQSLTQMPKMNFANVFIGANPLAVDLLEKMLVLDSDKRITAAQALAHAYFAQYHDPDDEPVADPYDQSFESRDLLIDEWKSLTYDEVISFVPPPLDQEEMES

In the case of `O=C(Cn1ccnc1)Nc1cnc(OCc2c(Cl)cccc2Cl)cn1`, the 50% inhibitory concentration (IC50) is less than 20 µM.

With `O=C(Nc1ccc(F)c(COc2cnccn2)c1)c1ccc(-c2ccccc2)cc1`, the IC50 was less than 200 µM.

With `Nc1ncc(OCc2cccc3ccccc23)nc1Br`, the IC50 was less than 1000 µM.

As to `O=C(Nc1ccc(Cl)c(COc2ccc(NCc3ccccc3)nc2)c1)c1cc(F)cc(N2CCOCC2)c1`, the 50% inhibitory concentration (IC50) was less than 2 µM.

As for `O=C(NCCO)c1cnc(OCc2c(Cl)cccc2Cl)cn1`, the IC50 was less than 1000 µM.

On to `O=C(Nc1ccc(F)c(COc2cnccn2)c1)Nc1nnc(-c2ccccc2)s1`, for which the IC50 is less than 200 µM.

`CSc1nnc(NC(=O)Nc2ccc(F)c(COc3cnccn3)c2)s1` gave a half-inhibitory concentration (IC50) of less than 200 µM.

`O=S(=O)(c1ccccc1)N(c1ccc(Cl)c(COc2cccnc2)c1)S(=O)(=O)c1ccccc1` returned an IC50 of less than 1000 µM.

With `O=C(Nc1ccc(F)c(COc2cnccn2)c1)Oc1cccc(C(F)(F)F)c1`, the 50% inhibitory concentration (IC50) was less than 20 µM.

Molecule `Nc1ncccc1OCc1cccc2ccoc12` displayed a 50% inhibitory concentration (IC50) of less than 1000 µM.

`Nc1ccncc1OCc1cccc2ccccc12` gave an IC50 of less than 1000 µM.

On to `CC(C)(C)c1cccc(C(=O)Nc2ccc(F)c(COc3cnccn3)c2)c1`, for which the IC50 is less than 2 µM.

The molecule `Clc1cccc(Cl)c1COc1ccc(N2CCOCC2)nc1` gave a 50% inhibitory concentration (IC50) of less than 1000 µM.

`Nc1ncc(OCc2ccccc2)nc1Br` displayed an IC50 of less than 1000 µM.

`O=C(Nc1ccc(F)c(COc2cnccn2)c1)c1cc(N2CCOCC2)nc(N2CCOCC2)n1` gave an IC50 of less than 2 µM.

`O=C(Nc1ccc(F)c(COc2cnccn2)c1)c1cccc(S(=O)(=O)N2CCOCC2)c1` yielded an IC50 of less than 2 µM.

`CC(C)(C)c1cc(NC(=O)Nc2ccc(Cl)c(COc3cccnc3)c2)n(-c2ccccc2)n1` registered an IC50 of less than 2 µM.

Consider `O=C(Nc1ccc(F)c(COc2cnccn2)c1)c1ccc(=O)n(Cc2ccccc2)c1`, for which the half-inhibitory concentration (IC50) is less than 20 µM.

Molecule `Nc1nccnc1OCc1cccc2ccccc12` returned an IC50 of less than 1000 µM.

In turn, `Nc1ncccc1OCc1ccc(F)c(F)c1` registered an IC50 of less than 1000 µM.

Turning to `Nc1nccnc1OCc1c(Cl)cccc1Cl`, the IC50 was less than 1000 µM.

`CC(C)(C)c1ccc(-n2nc(C3CC3)cc2NC(=O)Nc2ccc(F)c(COc3cnccn3)c2)cc1` returned an IC50 of less than 200 µM.

`Cc1cc(C)c2nc(NC(=O)Nc3ccc(F)c(COc4cnccn4)c3)sc2c1`: the half-maximal inhibitory concentration (IC50) was less than 1000 µM.

`CC(C)(C)c1cc(NC(=O)Nc2ccc(F)c(COc3cnccn3)c2)n(Cc2ccccc2)n1` returned a concentration for half-maximal inhibition (IC50) of less than 2 µM.

Take `CC(Nc1cnc(OCc2c(Cl)cccc2Cl)cn1)c1ccccc1` (centres undefined): the IC50 was less than 20 µM.

`O=C(Nc1ccc(F)c(COc2cnccn2)c1)Nc1cc(C2CCCO2)nn1-c1ccc(F)cc1` (centres undefined) returned a 50% inhibitory concentration (IC50) of less than 2 µM.

As to `O=C(CC1CCOCC1)Nc1cnc(OCc2c(Cl)cccc2Cl)cn1`, the IC50 is less than 200 µM.

The molecule `O=C(Nc1ccc(F)c(COc2cnccn2)c1)Nc1nnc(C2CCCO2)s1` (centres undefined) yielded an IC50 of less than 2 µM.

With `CC(C)(C)c1ccccc1NC(=O)Nc1ccc(F)c(COc2cccnc2)c1`, the IC50 was less than 20 µM.

`CC(C)(C)n1nc(-c2ccccc2)cc1NC(=O)Nc1ccc(F)c(COc2cnccn2)c1`: the half-maximal inhibitory concentration (IC50) is less than 20 µM.

The molecule `Nc1cccc(COc2cncc(Cl)n2)c1` showed an IC50 of less than 1000 µM.

With `c1cc(COc2cccnc2)cc(COc2cccnc2)c1`, the IC50 is less than 1000 µM.

Molecule `Nc1ncccc1OCc1csc2ccccc12` yielded an IC50 of less than 1000 µM.

In the case of `c1cc(COc2cnccn2)cc(Nc2nc3ccccc3o2)c1`, the concentration for half-maximal inhibition (IC50) is less than 200 µM.

With `Nc1cnc(OCc2c(Cl)cccc2Cl)cn1`, the concentration for half-maximal inhibition (IC50) was less than 200 µM.

In the case of `O=C(Nc1ccc(F)c(COc2cnccn2)c1)c1cc(On2nnc3ccccc32)nc(Cl)n1`, the IC50 was less than 1000 µM.

With `O=C(Nc1ccc(Cl)c(COc2cccnc2)c1)c1cccc(F)c1`, the half-maximal inhibitory concentration (IC50) is less than 200 µM.

`Clc1cnc(OCc2c(Cl)cccc2Cl)cn1`: the concentration for half-maximal inhibition (IC50) was less than 1000 µM.

Take `O=C(Nc1ccc(F)c(COc2cnccn2)c1)Nc1ncc(-c2ccc(Cl)cc2)s1`: the IC50 is less than 200 µM.

In turn, `O=C(Nc1ccc(Cl)c(COc2cccnc2)c1)c1cccc(Cl)c1` yielded an IC50 of less than 20 µM.

In turn, `O=C(Nc1ccc(F)c(COc2cccnc2)c1)c1ccccc1` returned a half-maximal inhibitory concentration (IC50) of less than 200 µM.

As for `CC(C)(C)OC(=O)Nc1ccc(Cl)c(COc2cnccn2)c1`, the IC50 was less than 1000 µM.

The molecule `Nc1ncccc1OCc1ccc(F)cc1F` had an IC50 of less than 1000 µM.

For the molecule `CC(=O)Nc1ccc(Cl)c(COc2cccnc2)c1`, the 50% inhibitory concentration (IC50) is less than 1000 µM.

Consider `Cc1nc(-c2cccc(C(=O)Nc3ccc(F)c(COc4cnccn4)c3)c2)cs1`, for which the IC50 was less than 2 µM.

`Nc1ccc(Cl)c(COc2cccnc2)c1` gave a half-inhibitory concentration (IC50) of less than 1000 µM.

Take `NC(=O)Nc1ccc(Cl)c(COc2cccnc2)c1`: the IC50 is less than 20 µM.

For the molecule `O=C(Nc1ccc(F)c(COc2cccnc2)c1)c1cncc(N2CCOCC2)n1`, the IC50 is less than 20 µM.

On to `Cc1nc2sccn2c1C(=O)Nc1ccc(F)c(COc2cnccn2)c1`, for which the half-inhibitory concentration (IC50) is less than 2 µM.

`Cc1noc(-c2ccccc2)c1C(=O)Nc1ccc(F)c(COc2cnccn2)c1` came in with a half-inhibitory concentration (IC50) of less than 200 µM.

In turn, `CC(C)(C)c1csc(NC(=O)Nc2ccc(F)c(COc3cnccn3)c2)n1` came in with an IC50 of less than 20 µM.

For `NS(=O)(=O)CCNC(=O)c1cnc(OCc2c(Cl)cccc2Cl)cn1`, the IC50 was less than 1000 µM.

Take `CC(C)(C)c1cc(NC(=O)Nc2ccc(F)c(COc3cnccn3)c2)n(-c2ccc(Cl)cc2)n1`: the IC50 is less than 2 µM.

The molecule `O=C(Nc1ccc(F)c(COc2cnccn2)c1)c1nnc(-c2ccccc2)o1` displayed a half-inhibitory concentration (IC50) of less than 2 µM.

In turn, `c1ccc(CNc2cccc(COc3cnccn3)c2)cc1` gave a 50% inhibitory concentration (IC50) of less than 1000 µM.

For the molecule `CN1CCCC(CNC(=O)c2cnc(OCc3c(Cl)cccc3Cl)cn2)C1` (centres undefined), the IC50 was less than 1000 µM.

The molecule `O=C(Nc1ccc(Cl)c(COc2cccnc2)c1)c1ccnc(N2CCOCC2)c1` returned a half-maximal inhibitory concentration (IC50) of less than 2 µM.

The molecule `O=C(Nc1cnc(OCc2c(Cl)cccc2Cl)cn1)N1CCOCC1` gave an IC50 of less than 2 µM.

Take `O=S(=O)(Nc1ccc(Cl)c(COc2cccnc2)c1)c1ccccc1`: the IC50 is less than 200 µM.

Turning to `CCNC(=O)c1cnc(OCc2c(Cl)cccc2Cl)cn1`, the IC50 is less than 1000 µM.

Take `O=C1c2ccccc2CN1c1ccc(F)c(COc2cccnc2)c1`: the half-maximal inhibitory concentration (IC50) was less than 1000 µM.

With `O=C(Nc1cccc(COc2cccnc2)c1)c1cc(F)cc(N2CCOCC2)c1`, the IC50 was less than 20 µM.

Turning to `Nc1ncccc1OCc1cc2c(cc1Cl)OCO2`, the half-inhibitory concentration (IC50) is less than 1000 µM.

Regarding `O=C(Nc1ccc(F)c(COc2cnccn2)c1)c1ccc2ccccc2c1`, the IC50 was less than 20 µM.

On to `CC(C)(CO)NC(=O)c1cnc(OCc2c(Cl)cccc2Cl)cn1`, for which the IC50 was less than 20 µM.

`CC(C)(C)c1ccc2[nH]cc(CC(=O)Nc3ccc(F)c(COc4cnccn4)c3)c2c1` displayed a half-inhibitory concentration (IC50) of less than 200 µM.

The molecule `CC1(C(=O)Nc2cnc(OCc3c(Cl)cccc3Cl)cn2)CC1` returned a concentration for half-maximal inhibition (IC50) of less than 200 µM.

On to `Cc1nc(-c2cc(C(=O)Nc3ccc(F)c(COc4cnccn4)c3)no2)cs1`, for which the IC50 was less than 200 µM.

`O=C(CN1CCOCC1)Nc1cnc(OCc2c(Cl)cccc2Cl)cn1` had an IC50 of less than 200 µM.

`Nc1ncccc1OCc1ccccc1-c1ccccc1` showed an IC50 of less than 10 µM.

Molecule `CC(CO)(CO)NC(=O)c1cnc(OCc2c(Cl)cccc2Cl)cn1` came in with an IC50 of less than 2 µM.

In the case of `OCCNc1ccc(OCc2ccccc2)cn1`, the half-inhibitory concentration (IC50) was less than 200 µM.

`Nc1ncccc1OCc1ccc(F)cc1Cl` came in with an IC50 of less than 1000 µM.

`Cc1cccc(COc2cccnc2N)c1F` gave an IC50 of less than 1000 µM.

Source of the values: the Kinase Knowledgebase extract (Sharma et al. 2016).
